US8846019B2, “Use of protoberberines as an active substance regulating the pilosebaceous unit” (Sederma, priority 2005, dated 2014)
Like-named read-outs stand apart in the source and are kept apart here. Marks after values point to notes of the source that are not given here.

Columns and labels:
Type in all cases: cell-based
[1] = test system: Normal human keratinocytes (KHN); test: Antiproliferative effect: BrdU incorporation by human keratinocytes (ELISA); details: for % incorporation of BrdU/control: 48 hours, 10% FCS; for effect on proliferation of keratinocytes (in words): dose-dependent mitotic decrease
Protocol: This test is based on the determination of the cellular growth rate. Cells are cultivated in complete medium enriched in FCS (10%) so as to obtain a population in active growth, Mitotic activity is assessed by the incorporation of a nucleotide base analog in DNA during replication: […] replaces thymidine. With a product slowing mitosis, a decrease in BrdU incorporation in cell DNA is to be expected.
Normal human keratinocytes (KHN) cultured with 10% FCS were incubated in the presence or absence of palmatine, or chelidonine at various concentrations for 48 hours.
After the first 24 hours, BrdU was added to the culture medium and the mitosis marker was allowed to act for 24 hours.
After 48 hours, the cells were lysed and the BrdU incorporation rate was determined by an ELISA method.

[2] = test system: fibroblasts; test: Toxicity evaluation on fibroblasts, MTT (mitochondrial respiration); details: for MTT % Change: percent of negative controle
[3] = test system: keratinocytes; test: Toxicity evaluation on keratinocytes, Hoescht (number of cells); details: for Hoescht % Change: percent of negative controle
[4] = test system: keratinocytes; test: Variation of the incorporation of BrdU, keratinocytes with palmatine or berberine; details: 48 hours of contact
[5] = test system: keratinocytes; test: Toxicity evaluation on keratinocytes, MTT (mitochondrial respiration); details: for MTT % Change: percent of negative controle
[6] = test system: fibroblasts; test: Toxicity evaluation on fibroblasts, Hoescht (number of cells); details: for Hoescht % Change: percent of negative controle
[7] = fibroblasts, at the tested concentrations
[8] = fibroblasts, concentration 3.10^E−4%
[9] = fibroblasts, concentration 9.10^E−4%
[10] = keratinocytes, at the tested concentrations
[11] = keratinocytes, concentration 3.10^E−4%
[12] = keratinocytes, concentration 10^E−3%

## CN1Cc2c(ccc3c2OCO3)[C@@H]2[C@H]1c1cc3c(cc1C[C@@H]2O)OCO3 [Chelidonine, chelidonine]
[1]; concentration 3 × 10E−4%
  % incorporation of BrdU/control: −41%
[1]; concentration 10E−4%
  % incorporation of BrdU/control: −31%
[1]; concentration 10 × 10E−4%
  % incorporation of BrdU/control: −74%
[1]
  effect on proliferation of keratinocytes (in words): inhibit the proliferation of keratinocytes

## COc1ccc2cc3[n+](cc2c1OC)CCc1cc2c(cc1-3)OCO2 [BERBERINE, berberine]
[2]
  change of the mitochondrial respiration (in words): engenders a change of the mitochondrial respiration
  toxicity on fibroblasts (conclusion in words): toxic effect on fibroblasts
[3]
  effect on the number of keratinocytes (in words): a decrease on the number of keratinocytes
[4]; concentration 3.10^E−4%
  % Change of the incorporation of BrdU: −36%**
[4]; concentration 10^E−3%
  % Change of the incorporation of BrdU: −65%**
[5]
  change of the mitochondrial respiration (in words): engenders a change of the mitochondrial respiration
  toxicity on keratinocytes (conclusion in words): toxic effect
[6]
  effect on the number of fibroblasts (in words): a decrease on the number of fibroblasts

## COc1cc2c(cc1OC)-c1cc3ccc(OC)c(OC)c3c[n+]1CC2 [palmatine]
[2]; fibroblasts, MTT and Hoescht
  toxicity on fibroblasts (conclusion in words): not toxic on fibroblasts
[2]; [7]
  change of the mitochondrial respiration (in words): does not engender a change of the mitochondrial respiration
[2]; [8]
  MTT % Change: 0 dns %
[2]; [9]
  MTT % Change: −9 dns %
[3]; [10]
  effect on the number of keratinocytes (in words): does not act on the number of keratinocytes
[3]; [11]
  Hoescht % Change: −1 dns %
[3]; [12]
  Hoescht % Change: −2 dns %
[4]; concentration 3.10^E−4%
  % Change of the incorporation of BrdU: −16%**
[4]; concentration 10^E−3%
  % Change of the incorporation of BrdU: −21%**
[5]; [10]
  change of the mitochondrial respiration (in words): does not engender a change of the mitochondrial respiration
[5]; [11]
  MTT % Change: 7 dns %
[5]; [12]
  MTT % Change: 5 dns %
[5]; keratinocytes, with respect to the different results
  toxicity on keratinocytes (conclusion in words): not toxic
[6]; [7]
  effect on the number of fibroblasts (in words): does not act on the number of fibroblasts
[6]; [8]
  Hoescht % Change: 1dns %
[6]; [9]
  Hoescht % Change: −1 dns %
[1]; concentration 3 × 10E−4%
  % incorporation of BrdU/control: −35%
[1]; concentration 10E−4%
  % incorporation of BrdU/control: −21%
[1]; concentration 10 × 10E−4%
  % incorporation of BrdU/control: −58%
[1]
  effect on proliferation of keratinocytes (in words): inhibit the proliferation of keratinocytes
